{"source": "patent US20220202799A1", "about": "“PHARMACEUTICAL FORMULATIONS CONTAINING P2Y14 ANTAGONISTS” (priority 2019, published 2022)", "experiment": "Effect of pH on solubility of PPTN in aqueous medium", "format": "physicochemical", "experimental": "The effect of pH on the solubility of PPTN in an aqueous medium was analyzed. Solutions of PPTN in either water or phosphate buffer at various pH values were incubated with agitation for 24-48 hours at room temperature then filtered to remove precipitates, and the PPTN concentration of the filtered solution was analyzed.", "note": "Where “and” joins values, the source holds several entries; their conditions need not be identical. Equal values may be shown once."}
{"smiles": "Cl.O=C(O)c1cc(-c2ccc(C3CCNCC3)cc2)c2ccc(-c3ccc(C(F)(F)F)cc3)cc2c1", "note": "[KB-1801.HCl]", "values": [{"measurement": "[KB-1801.HCl] by HPLC Analysis (solubility)", "setting": "pH 1.9, 10 mM phosphate buffer, 24-48 h, ~22° C.", "result": "0.0008 mg/mL and 1.6 μM"}, {"measurement": "[KB-1801.HCl] by HPLC Analysis (solubility)", "setting": "pH 2.8, 10 mM phosphate buffer, 24-48 h, ~22° C.", "result": "0.0255 mg/mL and 50 μM"}, {"measurement": "[KB-1801.HCl] by HPLC Analysis (solubility)", "setting": "pH 4.8, 0 mM buffer (DIW), >24 h, ~25° C. (from initial sonication)", "result": "~0.1 mg/mL and 195 μM"}, {"measurement": "[KB-1801.HCl] by HPLC Analysis (solubility)", "setting": "pH 6.6, 10 mM phosphate buffer, 24-48 h, ~22° C.", "result": "0.0001 mg/mL and 0.2 μM"}, {"measurement": "[KB-1801.HCl] by HPLC Analysis (solubility)", "setting": "pH 8.2, 10 mM phosphate buffer, 24-48 h, ~22° C.", "result": "0.0001 mg/mL and 0.2 μM"}]}
